Experimental data reported in ChEMBL document CHEMBL5465560, “Selectivity Literature for EUbOPEN Chemogenomic Library” (2024).

Experiments:
[1] = target: T1, Muscle, skeletal receptor tyrosine-protein kinase (Homo sapiens) (UniProt O15146); test: Selectivity interaction (KinomeScan (DiscoverX)) EUB0000229b MUSK; details: at 10 µM
T1 sequence (whole entry): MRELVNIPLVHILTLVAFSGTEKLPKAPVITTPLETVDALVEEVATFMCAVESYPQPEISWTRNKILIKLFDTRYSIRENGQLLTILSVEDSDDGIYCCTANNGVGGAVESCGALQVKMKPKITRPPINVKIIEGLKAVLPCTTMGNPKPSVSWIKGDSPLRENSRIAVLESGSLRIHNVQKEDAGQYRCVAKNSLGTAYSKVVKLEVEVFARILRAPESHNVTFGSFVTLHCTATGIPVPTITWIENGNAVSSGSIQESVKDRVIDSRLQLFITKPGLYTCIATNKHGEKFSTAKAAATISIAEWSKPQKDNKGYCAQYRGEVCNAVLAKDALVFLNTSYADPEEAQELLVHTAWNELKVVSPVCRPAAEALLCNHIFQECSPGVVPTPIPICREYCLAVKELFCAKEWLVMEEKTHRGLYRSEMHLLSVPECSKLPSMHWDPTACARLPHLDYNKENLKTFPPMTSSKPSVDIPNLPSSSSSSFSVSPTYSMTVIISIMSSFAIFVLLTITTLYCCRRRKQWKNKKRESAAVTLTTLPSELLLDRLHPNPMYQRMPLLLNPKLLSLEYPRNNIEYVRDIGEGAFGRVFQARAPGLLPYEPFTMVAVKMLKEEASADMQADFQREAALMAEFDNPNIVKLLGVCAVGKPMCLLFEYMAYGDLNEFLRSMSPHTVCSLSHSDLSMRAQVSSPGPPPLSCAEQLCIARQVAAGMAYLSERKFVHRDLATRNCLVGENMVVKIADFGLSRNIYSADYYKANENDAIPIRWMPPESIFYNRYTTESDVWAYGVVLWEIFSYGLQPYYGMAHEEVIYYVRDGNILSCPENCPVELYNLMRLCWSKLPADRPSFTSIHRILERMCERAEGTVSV

[2] = target: T2, Prostaglandin G/H synthase 2 (Homo sapiens) (UniProt P35354); test: Selectivity interaction (Safety Panel 44tm (Eurofins)) EUB0000162b PTGS2; details: at 10 µM
T2 sequence (whole entry): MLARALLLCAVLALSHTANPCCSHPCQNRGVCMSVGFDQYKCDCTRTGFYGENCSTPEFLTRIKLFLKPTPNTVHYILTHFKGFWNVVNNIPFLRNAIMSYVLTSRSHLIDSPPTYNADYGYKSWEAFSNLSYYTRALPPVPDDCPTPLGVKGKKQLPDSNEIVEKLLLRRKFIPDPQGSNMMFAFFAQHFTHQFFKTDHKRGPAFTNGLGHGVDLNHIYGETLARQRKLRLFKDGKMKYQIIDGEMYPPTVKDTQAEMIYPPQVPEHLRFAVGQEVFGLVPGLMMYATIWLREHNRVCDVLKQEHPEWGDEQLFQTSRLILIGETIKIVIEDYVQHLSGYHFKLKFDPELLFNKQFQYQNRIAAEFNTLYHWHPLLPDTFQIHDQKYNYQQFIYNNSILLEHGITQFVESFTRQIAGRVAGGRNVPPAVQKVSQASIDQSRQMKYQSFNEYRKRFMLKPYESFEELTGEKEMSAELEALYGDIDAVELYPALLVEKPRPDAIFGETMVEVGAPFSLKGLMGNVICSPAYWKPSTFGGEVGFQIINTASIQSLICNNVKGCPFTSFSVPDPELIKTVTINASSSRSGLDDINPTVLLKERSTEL

[3] = target: T3, Serine/threonine-protein kinase tousled-like 1 (Homo sapiens) (UniProt Q9UKI8); test: Selectivity interaction (KinomeScan (DiscoverX)) EUB0001049a TLK1; details: at 1 µM
T3 sequence (whole entry): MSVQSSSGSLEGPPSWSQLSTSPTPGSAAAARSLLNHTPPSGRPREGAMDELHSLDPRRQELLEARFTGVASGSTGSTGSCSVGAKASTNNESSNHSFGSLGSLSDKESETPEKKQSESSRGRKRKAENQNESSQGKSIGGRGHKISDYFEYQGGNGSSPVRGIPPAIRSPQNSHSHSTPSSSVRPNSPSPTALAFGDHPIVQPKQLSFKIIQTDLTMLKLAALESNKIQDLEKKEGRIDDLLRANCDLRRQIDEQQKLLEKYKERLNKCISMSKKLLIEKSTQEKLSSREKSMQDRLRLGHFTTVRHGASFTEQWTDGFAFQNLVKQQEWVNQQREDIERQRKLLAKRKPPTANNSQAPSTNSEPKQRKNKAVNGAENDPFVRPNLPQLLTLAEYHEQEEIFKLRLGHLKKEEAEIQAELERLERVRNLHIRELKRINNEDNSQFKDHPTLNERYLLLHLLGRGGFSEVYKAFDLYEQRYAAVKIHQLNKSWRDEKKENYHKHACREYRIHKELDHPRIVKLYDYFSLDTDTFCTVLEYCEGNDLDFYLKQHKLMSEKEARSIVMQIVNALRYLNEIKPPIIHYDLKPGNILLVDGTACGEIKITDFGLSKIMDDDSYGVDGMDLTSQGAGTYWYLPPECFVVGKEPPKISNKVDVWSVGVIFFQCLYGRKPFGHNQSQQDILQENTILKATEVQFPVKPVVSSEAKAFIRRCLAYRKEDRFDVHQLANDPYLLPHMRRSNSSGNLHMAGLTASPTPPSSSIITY

[4] = target: Proto-oncogene tyrosine-protein kinase ROS (Homo sapiens) (UniProt P08922); test: Selectivity interaction (ProQinase) EUB0000171b ROS1
[5] = target: Dual specificity tyrosine-phosphorylation-regulated kinase 1B (Homo sapiens, UniProt Q9Y463); test: Selectivity interaction (SelectScreen profiling (Invitrogen)) EUB0000607a DYRK1B; details: at 2 µM
Chain of Dual specificity tyrosine-phosphorylation-regulated kinase 1B (Q9Y463 whole entry, looked up): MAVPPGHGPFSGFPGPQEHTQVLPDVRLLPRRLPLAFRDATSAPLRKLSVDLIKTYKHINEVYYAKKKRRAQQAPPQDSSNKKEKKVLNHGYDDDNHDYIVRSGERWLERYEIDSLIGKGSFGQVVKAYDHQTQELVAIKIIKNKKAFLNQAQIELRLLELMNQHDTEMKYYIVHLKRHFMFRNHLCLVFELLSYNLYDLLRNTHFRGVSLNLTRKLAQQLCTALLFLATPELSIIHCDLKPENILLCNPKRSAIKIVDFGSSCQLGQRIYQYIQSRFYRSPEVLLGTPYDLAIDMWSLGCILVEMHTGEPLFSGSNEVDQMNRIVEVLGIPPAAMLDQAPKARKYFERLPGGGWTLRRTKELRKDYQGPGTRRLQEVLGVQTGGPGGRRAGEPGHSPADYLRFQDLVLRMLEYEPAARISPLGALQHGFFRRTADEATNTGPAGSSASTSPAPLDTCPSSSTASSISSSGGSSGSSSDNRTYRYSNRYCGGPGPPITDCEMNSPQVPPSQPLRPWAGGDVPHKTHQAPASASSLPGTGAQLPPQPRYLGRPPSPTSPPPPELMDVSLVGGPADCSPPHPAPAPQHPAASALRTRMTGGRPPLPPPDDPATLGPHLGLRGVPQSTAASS

Chain of Proto-oncogene tyrosine-protein kinase ROS (Homo sapiens) (P08922 whole entry): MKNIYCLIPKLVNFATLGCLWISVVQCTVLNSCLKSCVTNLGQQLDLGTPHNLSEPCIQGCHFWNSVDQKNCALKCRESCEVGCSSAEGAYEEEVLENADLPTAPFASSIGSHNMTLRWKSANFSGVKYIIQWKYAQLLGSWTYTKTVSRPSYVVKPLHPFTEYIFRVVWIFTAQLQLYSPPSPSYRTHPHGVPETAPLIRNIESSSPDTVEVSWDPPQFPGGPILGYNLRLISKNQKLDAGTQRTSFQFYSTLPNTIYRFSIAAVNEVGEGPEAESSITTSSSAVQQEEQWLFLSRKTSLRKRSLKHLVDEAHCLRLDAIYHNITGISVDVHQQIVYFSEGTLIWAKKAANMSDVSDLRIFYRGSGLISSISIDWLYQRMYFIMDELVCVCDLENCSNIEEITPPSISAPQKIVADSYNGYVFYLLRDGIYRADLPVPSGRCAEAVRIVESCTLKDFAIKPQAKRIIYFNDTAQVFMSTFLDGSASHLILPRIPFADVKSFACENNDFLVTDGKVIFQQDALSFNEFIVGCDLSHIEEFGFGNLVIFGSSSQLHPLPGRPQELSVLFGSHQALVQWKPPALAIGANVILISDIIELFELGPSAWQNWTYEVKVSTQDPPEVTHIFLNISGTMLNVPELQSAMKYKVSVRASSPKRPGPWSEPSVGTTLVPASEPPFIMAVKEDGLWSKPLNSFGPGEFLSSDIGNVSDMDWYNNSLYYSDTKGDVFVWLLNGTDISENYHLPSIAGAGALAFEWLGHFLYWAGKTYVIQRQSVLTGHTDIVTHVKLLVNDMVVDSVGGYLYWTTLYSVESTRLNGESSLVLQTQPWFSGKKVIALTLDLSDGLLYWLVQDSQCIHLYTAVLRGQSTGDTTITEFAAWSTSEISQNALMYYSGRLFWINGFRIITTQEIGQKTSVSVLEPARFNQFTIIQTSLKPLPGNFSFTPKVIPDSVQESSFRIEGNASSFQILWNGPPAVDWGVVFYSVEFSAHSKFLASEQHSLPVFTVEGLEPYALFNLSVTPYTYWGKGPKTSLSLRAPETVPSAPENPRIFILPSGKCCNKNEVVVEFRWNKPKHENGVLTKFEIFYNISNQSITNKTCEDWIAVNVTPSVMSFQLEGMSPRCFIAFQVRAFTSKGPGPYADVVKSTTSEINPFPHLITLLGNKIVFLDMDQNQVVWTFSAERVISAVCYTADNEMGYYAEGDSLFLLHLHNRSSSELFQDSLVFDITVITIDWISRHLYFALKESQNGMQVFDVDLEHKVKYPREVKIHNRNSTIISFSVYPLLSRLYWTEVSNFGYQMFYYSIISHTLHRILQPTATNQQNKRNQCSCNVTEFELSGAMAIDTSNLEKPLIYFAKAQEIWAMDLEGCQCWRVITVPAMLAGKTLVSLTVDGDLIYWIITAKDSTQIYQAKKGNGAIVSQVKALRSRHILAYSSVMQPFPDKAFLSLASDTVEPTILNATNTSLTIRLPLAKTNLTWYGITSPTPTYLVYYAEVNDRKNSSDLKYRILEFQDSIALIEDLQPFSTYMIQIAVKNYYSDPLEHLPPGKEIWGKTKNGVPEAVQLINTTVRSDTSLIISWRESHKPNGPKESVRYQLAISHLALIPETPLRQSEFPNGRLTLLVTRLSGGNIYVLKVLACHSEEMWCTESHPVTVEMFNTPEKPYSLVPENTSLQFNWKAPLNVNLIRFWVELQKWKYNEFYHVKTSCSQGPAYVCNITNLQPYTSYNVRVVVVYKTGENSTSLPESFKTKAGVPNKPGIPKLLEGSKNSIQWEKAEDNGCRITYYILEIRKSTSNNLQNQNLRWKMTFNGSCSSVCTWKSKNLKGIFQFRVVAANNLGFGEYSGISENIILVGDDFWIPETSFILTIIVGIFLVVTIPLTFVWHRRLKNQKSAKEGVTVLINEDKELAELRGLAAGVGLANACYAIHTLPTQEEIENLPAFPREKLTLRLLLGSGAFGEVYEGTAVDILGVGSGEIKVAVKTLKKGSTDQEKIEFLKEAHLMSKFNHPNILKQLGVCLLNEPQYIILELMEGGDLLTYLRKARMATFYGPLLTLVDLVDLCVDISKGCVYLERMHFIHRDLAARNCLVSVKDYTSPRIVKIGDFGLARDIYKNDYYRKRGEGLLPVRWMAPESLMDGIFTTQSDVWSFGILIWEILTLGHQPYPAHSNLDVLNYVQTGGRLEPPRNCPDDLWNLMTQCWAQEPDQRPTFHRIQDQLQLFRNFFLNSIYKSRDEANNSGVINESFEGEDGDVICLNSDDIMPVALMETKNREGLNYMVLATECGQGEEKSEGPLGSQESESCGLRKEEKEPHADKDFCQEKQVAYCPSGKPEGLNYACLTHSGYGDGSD

COc1cc(N(C)c2ccnc3ccc(C(F)(F)F)cc23)cc(OC)c1OC
% binding [1]: 81%

CN(C)C(=O)Cn1cc(-c2ccc(-c3cncc4ccccc34)cc2)cn1
% of control [2]: 81%

COc1cc(Nc2nc(C)cc(-c3cnn4nc(OC)ccc34)n2)cc(C(F)(F)F)c1
% of control [3]: 100%

C=CC(=O)Nc1cccc(C(=O)Nc2ccc(Nc3cc(-c4[nH]c(SC)nc4C)ccn3)cc2)c1
% of control ([4]; at 1 µM): 87%
% of control ([4]; at 5 µM): 74%

CNC(=O)Nc1ccc(-c2nc(N3CC4CCC(C3)O4)c3cnn(C4CCC5(CC4)OCCO5)c3n2)cc1
% of inhibition [5]: 2%
